For six molecules, IC50 results are on record in ChEMBL document CHEMBL5247649, “Comparative Efficacy and Selectivity of Pharmacological Inhibitors of DYRK and CLK Protein Kinases” (J Med Chem, 2023).

Each structure is given as a SMILES string.

The target in data set [1] is T1, Dual specificity tyrosine-phosphorylation-regulated kinase 2 (Homo sapiens, UniProt Q92630).
T1 sequence (Q92630 whole entry): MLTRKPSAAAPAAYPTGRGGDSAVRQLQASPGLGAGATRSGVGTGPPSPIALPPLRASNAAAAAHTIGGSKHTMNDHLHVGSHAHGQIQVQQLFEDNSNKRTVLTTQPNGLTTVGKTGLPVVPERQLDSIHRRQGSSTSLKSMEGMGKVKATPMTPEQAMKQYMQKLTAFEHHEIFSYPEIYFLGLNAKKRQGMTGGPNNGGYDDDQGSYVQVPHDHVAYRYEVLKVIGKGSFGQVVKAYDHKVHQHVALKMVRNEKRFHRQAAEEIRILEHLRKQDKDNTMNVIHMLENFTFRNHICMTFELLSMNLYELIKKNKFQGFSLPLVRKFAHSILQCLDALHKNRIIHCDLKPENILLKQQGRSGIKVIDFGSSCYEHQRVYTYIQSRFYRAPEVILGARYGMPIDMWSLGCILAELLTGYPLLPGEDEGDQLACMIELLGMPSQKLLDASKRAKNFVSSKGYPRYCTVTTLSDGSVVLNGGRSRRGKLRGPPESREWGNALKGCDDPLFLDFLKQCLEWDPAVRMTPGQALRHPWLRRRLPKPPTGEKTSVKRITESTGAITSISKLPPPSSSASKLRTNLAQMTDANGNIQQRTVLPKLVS
Briefly: biochemical. The data set is classed as cell-based, Sf9.

Data set [2] deals with Cyclin-dependent kinase 5/CDK5 activator 1 (Homo sapiens, UniProt Q00535). Briefly: biochemical. The data set is classed as cell-based, Sf9.
Cyclin-dependent kinase 5/CDK5 activator 1, sequence (Q00535 whole entry): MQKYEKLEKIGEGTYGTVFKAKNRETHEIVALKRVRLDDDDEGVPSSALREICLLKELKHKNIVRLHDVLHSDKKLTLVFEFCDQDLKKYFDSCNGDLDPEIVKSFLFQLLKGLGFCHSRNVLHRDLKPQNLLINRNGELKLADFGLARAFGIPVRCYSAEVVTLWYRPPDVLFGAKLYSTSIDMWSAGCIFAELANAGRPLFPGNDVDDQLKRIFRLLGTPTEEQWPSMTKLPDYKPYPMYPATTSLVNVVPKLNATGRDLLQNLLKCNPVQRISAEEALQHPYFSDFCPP
Cyclin-dependent kinase 5/CDK5 activator 1, sequence (Q15078 whole entry, further chain): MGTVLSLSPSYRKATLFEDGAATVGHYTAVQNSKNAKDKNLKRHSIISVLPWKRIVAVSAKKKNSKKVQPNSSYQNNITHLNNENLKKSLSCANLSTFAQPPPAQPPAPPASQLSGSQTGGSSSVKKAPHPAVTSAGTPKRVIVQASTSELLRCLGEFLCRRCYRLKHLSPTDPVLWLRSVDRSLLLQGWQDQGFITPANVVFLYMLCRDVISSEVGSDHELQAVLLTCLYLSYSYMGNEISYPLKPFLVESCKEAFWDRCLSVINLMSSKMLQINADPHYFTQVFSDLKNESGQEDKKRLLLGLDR
The target in data set [3] is T2, Dual specificity tyrosine-phosphorylation-regulated kinase 3 (Homo sapiens, UniProt O43781).
T2 sequence (O43781 whole entry): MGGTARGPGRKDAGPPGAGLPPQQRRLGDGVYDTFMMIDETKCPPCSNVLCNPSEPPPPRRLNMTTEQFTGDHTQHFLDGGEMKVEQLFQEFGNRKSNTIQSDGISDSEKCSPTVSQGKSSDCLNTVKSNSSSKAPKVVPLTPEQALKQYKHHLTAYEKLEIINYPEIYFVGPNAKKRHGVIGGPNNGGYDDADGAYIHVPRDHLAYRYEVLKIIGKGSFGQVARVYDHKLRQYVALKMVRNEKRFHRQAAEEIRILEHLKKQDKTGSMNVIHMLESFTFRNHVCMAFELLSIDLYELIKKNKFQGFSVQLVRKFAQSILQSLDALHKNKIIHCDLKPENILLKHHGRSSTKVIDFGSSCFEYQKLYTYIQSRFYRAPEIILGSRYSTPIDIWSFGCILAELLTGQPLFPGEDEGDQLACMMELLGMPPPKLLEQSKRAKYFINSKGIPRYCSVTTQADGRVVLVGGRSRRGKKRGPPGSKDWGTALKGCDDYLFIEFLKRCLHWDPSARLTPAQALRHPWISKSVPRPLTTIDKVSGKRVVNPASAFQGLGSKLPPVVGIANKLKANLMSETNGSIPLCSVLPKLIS
Nature of the data set: biochemical. The data set is classed as cell-based, Sf9.

Data set [4] is described as follows: in vitro. The note with it: mouse, ht-22.
The target of data set [5] is Dual specificity protein kinase CLK4 (Homo sapiens, UniProt Q9HAZ1). Briefly: biochemical.
Dual specificity protein kinase CLK4, sequence (Q9HAZ1 whole entry): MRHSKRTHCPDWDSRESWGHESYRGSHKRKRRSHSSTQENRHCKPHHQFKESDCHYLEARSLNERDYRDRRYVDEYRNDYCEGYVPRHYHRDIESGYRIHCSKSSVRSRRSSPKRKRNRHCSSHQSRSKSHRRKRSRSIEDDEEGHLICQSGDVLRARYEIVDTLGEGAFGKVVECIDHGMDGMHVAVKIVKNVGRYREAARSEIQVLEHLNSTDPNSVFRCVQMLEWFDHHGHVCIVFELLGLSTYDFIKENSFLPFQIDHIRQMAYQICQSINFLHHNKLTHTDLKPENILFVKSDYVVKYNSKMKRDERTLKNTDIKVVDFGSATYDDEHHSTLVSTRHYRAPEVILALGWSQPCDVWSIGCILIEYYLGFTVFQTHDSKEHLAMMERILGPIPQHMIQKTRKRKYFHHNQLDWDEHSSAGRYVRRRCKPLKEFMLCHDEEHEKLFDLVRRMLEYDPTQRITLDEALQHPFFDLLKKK
In data set [6] the target is Dual specificity protein kinase CLK2 (Homo sapiens, UniProt P49760). Briefly: biochemical.
Dual specificity protein kinase CLK2, sequence (P49760 whole entry): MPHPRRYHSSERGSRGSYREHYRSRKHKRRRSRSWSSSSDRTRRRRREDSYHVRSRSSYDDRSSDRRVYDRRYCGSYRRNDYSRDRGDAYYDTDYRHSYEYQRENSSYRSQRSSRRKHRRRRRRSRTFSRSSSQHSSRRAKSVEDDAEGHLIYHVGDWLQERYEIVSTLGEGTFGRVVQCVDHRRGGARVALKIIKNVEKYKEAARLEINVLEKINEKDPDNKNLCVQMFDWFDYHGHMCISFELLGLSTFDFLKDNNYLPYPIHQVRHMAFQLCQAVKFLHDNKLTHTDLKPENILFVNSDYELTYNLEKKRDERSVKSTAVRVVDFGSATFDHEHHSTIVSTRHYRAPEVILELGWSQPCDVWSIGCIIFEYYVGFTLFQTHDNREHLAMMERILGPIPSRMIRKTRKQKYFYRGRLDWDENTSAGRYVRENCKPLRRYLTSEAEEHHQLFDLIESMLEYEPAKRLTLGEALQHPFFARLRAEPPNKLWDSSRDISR
Data set [7] concerns the target Glycogen synthase kinase-3 beta (Homo sapiens, UniProt P49841). Nature of the data set: biochemical. The class given is cell-based, Sf9.
Data set [8] addresses Dual specificity protein kinase CLK3 (Homo sapiens, UniProt P49761). Nature of the data set: biochemical. The data set is classed as cell-based, Sf9.
The target of data set [9] is Casein kinase I isoform epsilon (Homo sapiens, UniProt P49674). Nature of the data set: biochemical. The class given is cell-based, Sf9.
Casein kinase I isoform epsilon, sequence (P49674 whole entry, canonical isoform): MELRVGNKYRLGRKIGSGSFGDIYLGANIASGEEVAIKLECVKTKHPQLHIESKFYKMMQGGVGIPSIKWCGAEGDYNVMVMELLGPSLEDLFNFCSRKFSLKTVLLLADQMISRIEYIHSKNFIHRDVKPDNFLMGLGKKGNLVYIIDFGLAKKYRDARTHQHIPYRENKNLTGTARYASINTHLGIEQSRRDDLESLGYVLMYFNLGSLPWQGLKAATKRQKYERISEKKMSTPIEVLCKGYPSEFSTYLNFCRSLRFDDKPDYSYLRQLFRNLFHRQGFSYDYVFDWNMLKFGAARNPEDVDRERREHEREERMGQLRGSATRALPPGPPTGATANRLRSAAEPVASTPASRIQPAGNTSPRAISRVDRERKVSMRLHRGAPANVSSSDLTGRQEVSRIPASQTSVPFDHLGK
Data set [10] concerns the target T3, Dual specificity protein kinase CLK1 (Homo sapiens, UniProt P49759). Nature of the data set: biochemical. The data set is classed as cell-based, Sf9.
For data set [11], the target named is T4, Dual specificity tyrosine-phosphorylation-regulated kinase 4 (Homo sapiens, UniProt Q9NR20).
T4 sequence (Q9NR20 whole entry): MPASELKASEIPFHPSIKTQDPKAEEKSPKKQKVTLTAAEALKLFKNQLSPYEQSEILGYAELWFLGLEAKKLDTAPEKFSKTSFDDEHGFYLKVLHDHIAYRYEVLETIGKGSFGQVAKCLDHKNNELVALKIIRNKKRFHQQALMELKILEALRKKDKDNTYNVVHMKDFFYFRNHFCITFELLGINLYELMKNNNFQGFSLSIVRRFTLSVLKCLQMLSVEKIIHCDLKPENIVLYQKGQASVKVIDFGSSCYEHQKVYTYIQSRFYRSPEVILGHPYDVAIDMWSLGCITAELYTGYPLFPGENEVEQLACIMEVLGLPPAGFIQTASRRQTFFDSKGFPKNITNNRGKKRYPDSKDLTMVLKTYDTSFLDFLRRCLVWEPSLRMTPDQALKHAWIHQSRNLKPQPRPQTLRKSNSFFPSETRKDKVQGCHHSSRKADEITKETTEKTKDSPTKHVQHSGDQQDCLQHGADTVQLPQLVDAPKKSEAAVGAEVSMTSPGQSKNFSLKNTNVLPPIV
Briefly: biochemical. The class given is cell-based, Sf9.

For data set [12], the target named is T5, Dual specificity tyrosine-phosphorylation-regulated kinase 1A (Homo sapiens, UniProt Q13627). Briefly: biochemical.
Data set [13] deals with T5, Dual specificity tyrosine-phosphorylation-regulated kinase 1A.
For data set [14], the target named is T3, Dual specificity protein kinase CLK1. Nature of the data set: biochemical. The data set is classed as cell-based, Sf9. The conditions noted are these: read-out: IC50.

Dual specificity protein kinase CLK3, sequence (P49761 whole entry, canonical isoform): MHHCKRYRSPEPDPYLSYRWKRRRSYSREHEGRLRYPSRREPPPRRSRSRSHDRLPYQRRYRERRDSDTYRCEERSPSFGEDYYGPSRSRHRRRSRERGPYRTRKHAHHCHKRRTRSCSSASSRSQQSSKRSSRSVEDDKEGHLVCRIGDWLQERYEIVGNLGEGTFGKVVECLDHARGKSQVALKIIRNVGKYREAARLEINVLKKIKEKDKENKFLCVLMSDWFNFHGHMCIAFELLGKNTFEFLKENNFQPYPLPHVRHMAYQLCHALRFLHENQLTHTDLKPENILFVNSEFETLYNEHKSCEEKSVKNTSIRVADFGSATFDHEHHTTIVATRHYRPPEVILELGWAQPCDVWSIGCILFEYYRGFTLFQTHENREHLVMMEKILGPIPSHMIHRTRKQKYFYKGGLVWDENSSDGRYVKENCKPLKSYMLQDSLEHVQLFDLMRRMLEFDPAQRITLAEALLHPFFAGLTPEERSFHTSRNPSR
Glycogen synthase kinase-3 beta, sequence (P49841 whole entry): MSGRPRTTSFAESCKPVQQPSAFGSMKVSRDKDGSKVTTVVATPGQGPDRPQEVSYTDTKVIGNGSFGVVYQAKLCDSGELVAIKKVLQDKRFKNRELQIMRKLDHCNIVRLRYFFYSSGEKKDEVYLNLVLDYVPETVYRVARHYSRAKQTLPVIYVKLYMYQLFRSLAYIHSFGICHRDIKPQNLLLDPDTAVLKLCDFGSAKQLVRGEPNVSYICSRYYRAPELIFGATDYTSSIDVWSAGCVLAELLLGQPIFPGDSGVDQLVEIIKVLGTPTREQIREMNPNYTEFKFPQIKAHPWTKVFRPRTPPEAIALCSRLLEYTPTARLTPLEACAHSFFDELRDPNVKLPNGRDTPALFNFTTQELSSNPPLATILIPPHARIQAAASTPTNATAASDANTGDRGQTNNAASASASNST
T3 sequence (P49759 whole entry): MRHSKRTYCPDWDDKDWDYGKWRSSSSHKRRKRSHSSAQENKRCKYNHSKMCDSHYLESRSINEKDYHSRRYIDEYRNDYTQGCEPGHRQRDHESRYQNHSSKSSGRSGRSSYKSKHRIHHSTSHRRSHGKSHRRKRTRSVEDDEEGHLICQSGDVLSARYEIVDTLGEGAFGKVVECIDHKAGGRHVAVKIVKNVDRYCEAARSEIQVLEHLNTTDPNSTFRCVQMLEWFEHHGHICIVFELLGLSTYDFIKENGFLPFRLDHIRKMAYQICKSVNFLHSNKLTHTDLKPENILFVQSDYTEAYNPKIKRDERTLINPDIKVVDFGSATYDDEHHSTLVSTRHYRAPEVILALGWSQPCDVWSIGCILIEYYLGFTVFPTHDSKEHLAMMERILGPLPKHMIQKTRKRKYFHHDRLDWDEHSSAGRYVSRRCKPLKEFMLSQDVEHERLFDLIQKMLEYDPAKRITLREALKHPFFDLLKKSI

As for `CCN(CC)Cc1ccc(OC)c(-c2cc3c(-c4ccc(C(=O)O)c(C(C)C)c4)ccnc3[nH]2)c1`, the IC50 in data set [1] is greater than 10 µM; in data set [2], greater than 10 µM; in data set [3], greater than 10 µM; in data set [5] it was 0.672 µM; in data set [6] it was 0.772 µM; in data set [7], 1.33 µM. In addition, the IC50 in data set [8] was 2.41 µM; in data set [9], greater than 10 µM; in data set [10] it was 0.607 µM; in [11], greater than 10 µM; in [12] it was 8.26 µM. For the same molecule, inhibition in [4] was half-maximal at 8.1 µM (IC50 at 48 h).
On to `CCOc1ccc2nc(N3CCCN(C(=S)Nc4ccccc4F)CC3)c(C#N)cc2c1`, for which the IC50 in [1], in data set [2], in data set [3], in [5], in data set [6] and in data set [7] was greater than 10 µM in each case. Further, the IC50 in [8], in data set [9], in [10], in [11] and in data set [12] was greater than 10 µM throughout. The molecule also displayed an IC50 at 48 h in data set [4] greater than 100 µM.
For `CN1CCN(C(=O)C(C)(C)c2ccc(C(=O)Cc3cn4cc(-c5ccncc5)ccc4n3)cc2)CC1`, the IC50 in data set [1] is greater than 10 µM; in data set [2] it was greater than 10 µM; in [3] it was greater than 10 µM; in data set [5] it was 0.0491 µM; in data set [13], 0.0728 µM; in data set [6], 0.147 µM. For the same molecule, the IC50 is greater than 10 µM in data set [7]; 0.121 µM in data set [14]; 0.74 µM in data set [8]; greater than 10 µM in data set [9]; 0.107 µM in data set [10]; greater than 10 µM in [11]. The molecule further returned an IC50 in data set [12] of 0.253 µM. In data set [4], this molecule displayed an IC50 at 48 h of 7.9 µM.
With `CC(C)(c1ccc(O)cc1)c1ccc(O)cc1` [BISPHENOL A], the IC50 in data set [1], in data set [2], in [3], in data set [5], in data set [6] and in data set [7] was greater than 10 µM in each case. Also, the IC50 in data set [8], in data set [9], in data set [10], in data set [11] and in data set [12] was greater than 10 µM in each case. Moreover, 97 µM corresponded to half-maximal inhibition in data set [4] (IC50 at 48 h).
Turning to `O=C(O[C@@H]1Cc2c(O)cc(O)cc2O[C@@H]1c1cc(O)c(O)c(O)c1)c1cc(O)c(O)c(O)c1` [EPIGALOCATECHIN GALLATE], the IC50 in data set [1] was 2 µM; in [2], 0.431 µM; in data set [3], 1.62 µM; in data set [5] it was 0.368 µM; in data set [13], 0.766 µM; in data set [6], 1.32 µM. Further, the IC50 was 6.27 µM in data set [7]; greater than 10 µM in [14]; 2.58 µM in data set [8]; 0.365 µM in data set [9]; 0.0716 µM in [10]; 5.2 µM in data set [11]. In addition, the IC50 in data set [12] turned out to be 0.491 µM. Also, the IC50 at 48 h in data set [4] was determined as 23.8 µM.
For the molecule `COc1cc(CCc2c(O)ccc(O[C@@H]3O[C@H](CO)[C@@H](O)[C@H](O)[C@H]3O)c2C(C)=O)ccc1O` [SCORZODIHYDROSTILBENE A], the IC50 in [1], in [2], in data set [3], in data set [5], in data set [6] and in data set [7] was greater than 10 µM in each case. Moreover, the IC50 in data set [8] was greater than 10 µM; in [9], greater than 10 µM; in data set [10], greater than 10 µM; in [11], greater than 10 µM; in data set [12] it was 2.3 µM. The IC50 at 48 h in [4] is greater than 100 µM.
